Experiment: Drug loading and stability by LC-DAD-QTOF / LC-UV
Type: physicochemical
Conditions: high concentrations of ascorbic acid
Experimental: The sizes and size distributions were measured using dynamic light scattering (Malvern Zetasizer and Nanoparticles Tracking Analyzer (NTA)) in phosphate buffer (pH 7). Dry weight was determined by drying three sample aliquots at 50° C. overnight. Drug loading and stability was determined weighing/pipetting three sample aliquots, dissolution in DMSO, and dilution for LC-DAD-QTOF analysis. The concentration of compound 1A was determined using three samples of amphotericin B USP as a standard. The LC-QTOF method was: • Mobile phases: 0.1% formic acid [A] and acetonitrile [B] • HPLC system: Agilent 1290 HPLC system with a 1290 DAD connected to a QTOF • Column: Polaris 3 C18, 150×2 mm, 3 μm (Varian) • Column thermostat: 30° C. • Flow rate: 0.3 ml/min • Injection volume: 2 μL • Wavelength: 385 nm for measuring compound 1A/AMB, Scan 190-600 nm • Software: MassHunter Qualitative analysis B.0.600 • Post time: 5 min • QTOF was operated in negative electrospray mode (ESI−) • The HPLC gradient is shown in Table 1.

C[C@@H]1[C@H](O)[C@@H](C)/C=C/C=C/C=C/C=C/C=C/C=C/C=C/[C@H](O[C@@H]2O[C@H](C)[C@@H](O)[C@H](N)[C@@H]2O)C[C@@H]2O[C@](O)(C[C@@H](O)[C@H](O)CC[C@@H](O)C[C@@H](O)C[C@@H](O)CC(=O)O[C@H]1C)C[C@H](O)[C@H]2C [Compound 1A]
stability in solution: chemically dehydrated
